The test system of this experiment is BDF1 mice, P388 leukemia ip, median survival T/C. The experiment is described as follows: NCI In Vivo Anticancer Drug Screen. Data for tumor model P388 Leukemia (intraperitoneal) in B6D2F1 (BDF1) mice. As to conditions: endpoint: median survival time, higher = longer survival. In short, it runs like this: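 Mice carrying the transplantable tumour receive compound or vehicle. Survival is followed in each arm, and the treated measure is divided by the vehicle measure.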

Where [1] appears, read: dose: 50.0 mg/kg/injection, schedule: Q04DX003 (ip), vehicle: Klucel (hydroxypropylcellulose) (HPC).
Setting [2] is: dose: 100.0 mg/kg/injection, schedule: Q01DX009 (ip), vehicle: saline.
Where [3] appears, read: dose: 100.0 mg/kg/injection, schedule: Q04DX003 (ip), vehicle: saline.
The mark [4] stands for this setting: dose: 200.0 mg/kg/injection, schedule: Q01DX009 (ip), vehicle: saline.
[5] abbreviates: dose: 200.0 mg/kg/injection, schedule: Q04DX003 (ip), vehicle: saline.
Setting [6] is: dose: 400.0 mg/kg/injection, schedule: Q01DX009 (ip), vehicle: saline.
Setting [7] is: dose: 400.0 mg/kg/injection, schedule: Q04DX003 (ip), vehicle: saline.
[8] abbreviates: dose: 100.0 mg/kg/injection, schedule: Q04DX003 (ip), vehicle: saline with Tween-80.
The mark [9] stands for this setting: dose: 25.0 mg/kg/injection, schedule: Q01DX009 (ip), vehicle: saline.
[10] abbreviates: dose: 50.0 mg/kg/injection, schedule: Q01DX009 (ip), vehicle: saline.
The mark [11] stands for this setting: dose: 50.0 mg/kg/injection, schedule: Q04DX003 (ip), vehicle: saline.
Where [12] appears, read: dose: 50.0 mg/kg/injection, schedule: Q01DX009 (ip), vehicle: saline with Tween-80.
Where [13] appears, read: dose: 100.0 mg/kg/injection, schedule: Q01DX009 (ip), vehicle: saline with Tween-80.
Where [14] appears, read: dose: 200.0 mg/kg/injection, schedule: Q01DX009 (ip), vehicle: saline with Tween-80.
Setting [15] is: dose: 50.0 mg/kg/injection, schedule: Q04DX003 (ip), vehicle: saline with Tween-80.
The mark [16] stands for this setting: dose: 12.5 mg/kg/injection, schedule: Q01DX009 (ip), vehicle: saline.
[17] abbreviates: dose: 25.0 mg/kg/injection, schedule: Q04DX003 (ip), vehicle: saline.

SMILES strings stand for the structures. Values joined by “and” are separate entries in the source; they are usually repeats but may differ in a detail not shown here. Equal values may be shown once. Toxic doses and inconclusive results are not listed.

In the case of `CC(=O)NC(Cc1ccc(N(CCCl)CCCl)cc1)C(=O)O` (stereo not given), the T/C is 110 % of control (dose: 1.56 mg/kg/injection, schedule: Q01DX009 (ip), vehicle: water); 123 % of control (dose: 3.12 mg/kg/injection, schedule: Q01DX009 (ip), vehicle: water); 118 % of control (dose: 6.25 mg/kg/injection, schedule: Q01DX009 (ip), vehicle: water); 172 % of control (dose: 12.5 mg/kg/injection, schedule: Q04DX003 (ip), vehicle: water); 203 % of control (dose: 25.0 mg/kg/injection, schedule: Q01DX009 (ip), vehicle: water); 164 % of control and 200 % of control (dose: 25.0 mg/kg/injection, schedule: Q04DX003 (ip), vehicle: water). Besides, the T/C is, setting by setting: (dose: 50.0 mg/kg/injection, schedule: Q01DX009 (ip), vehicle: water) 248 % of control; (dose: 50.0 mg/kg/injection, schedule: Q04DX003 (ip), vehicle: water) 245 % of control and 200 % of control; (dose: 100.0 mg/kg/injection, schedule: Q04DX003 (ip), vehicle: water) 194 % of control.

Consider `CC1(C)COC(C)(C)C(=O)O1`, for which the T/C runs as follows: under setting [1], 95 % of control; (dose: 100.0 mg/kg/injection, schedule: Q04DX003 (ip), vehicle: Klucel (hydroxypropylcellulose) (HPC)) 90 % of control; (dose: 200.0 mg/kg/injection, schedule: Q04DX003 (ip), vehicle: Klucel (hydroxypropylcellulose) (HPC)) 100 % of control.

As for `ON=C(c1ccccn1)c1ccccn1`, the T/C by setting is: (dose: 100.0 mg/kg/injection, schedule: Q04DX003 (ip), vehicle: gum acacia) 100 % of control; (dose: 200.0 mg/kg/injection, schedule: Q04DX003 (ip), vehicle: gum acacia) 104 % of control; (dose: 400.0 mg/kg/injection, schedule: Q04DX003 (ip), vehicle: gum acacia) 104 % of control.

As to `Cc1cc(NCCCCNCCCNc2cc(C)nc3cc(N)ccc23)c2ccc(N)cc2n1`, under “dose: 12.5 mg/kg/injection, schedule: Q01DX009 (ip), vehicle: other”, the T/C was 155 % of control.

With `c1ccc(-c2c[n+]3cc4ccccc4cc3cn2)cc1`, the T/C reads like this: under setting [2], 95 % of control; under setting [3], 100 % of control; under setting [4], 91 % of control; under setting [5], 113 % of control; under setting [6], 91 % of control; under setting [7], 95 % of control.

With `CN1CCC(CN2c3ccccc3Sc3ccccc32)CC1`, the T/C (dose: 1.56 mg/kg/injection, schedule: Q01DX009 (ip), vehicle: Klucel (hydroxypropylcellulose) (HPC)) is 105 % of control; the T/C (dose: 3.12 mg/kg/injection, schedule: Q01DX009 (ip), vehicle: Klucel (hydroxypropylcellulose) (HPC)) was 86 % of control and 105 % of control; the T/C (dose: 6.25 mg/kg/injection, schedule: Q01DX009 (ip), vehicle: Klucel (hydroxypropylcellulose) (HPC)) is 95 % of control; the T/C (dose: 8.75 mg/kg/injection, schedule: Q04DX003 (ip), vehicle: Klucel (hydroxypropylcellulose) (HPC)) is 95 % of control; the T/C (dose: 17.5 mg/kg/injection, schedule: Q04DX003 (ip), vehicle: Klucel (hydroxypropylcellulose) (HPC)) is 95 % of control; the T/C (dose: 35.0 mg/kg/injection, schedule: Q04DX003 (ip), vehicle: Klucel (hydroxypropylcellulose) (HPC)) was 109 % of control. Also, the T/C was 110 % of control under setting [1]; 120 % of control (dose: 80.0 mg/kg/injection, schedule: Q04DX003 (ip), vehicle: Klucel (hydroxypropylcellulose) (HPC)); 118 % of control under setting [8]; 86 % of control (dose: 200.0 mg/kg/injection, schedule: Q04DX003 (ip), vehicle: saline with Tween-80).

As for `CCOC(=O)c1cnc2c(OC)cccc2c1Cl`, the T/C runs as follows: (dose: 4.0 mg/kg/injection, schedule: Q01DX009 (ip), vehicle: saline) 86 % of control; (dose: 8.0 mg/kg/injection, schedule: Q01DX009 (ip), vehicle: saline) 91 % of control; (dose: 16.0 mg/kg/injection, schedule: Q01DX009 (ip), vehicle: saline) 106 % of control; under setting [9], 120 % of control; under setting [10], 113 % of control; under setting [11], 96 % of control. In addition, the T/C under setting [2] is 111 % of control; the T/C under setting [3] is 96 % of control; the T/C under setting [4] is 113 % of control; the T/C under setting [5] is 97 % of control; the T/C under setting [6] is 113 % of control; the T/C under setting [7] is 90 % of control.

`CC(=O)OC1C(C=C(C)C)OC2CC3(C)C4=C(CCC3(C)C2C1C)C1(C)CCC(O)C(C)(C)C1CC4` (stereo not given): the T/C reads like this: (dose: 50.0 mg/kg/injection, schedule: Q01DX010 (sc), vehicle: steriod suspending solution) 90 % of control; (dose: 100.0 mg/kg/injection, schedule: Q01DX010 (sc), vehicle: steriod suspending solution) 90 % of control; (dose: 200.0 mg/kg/injection, schedule: Q01DX010 (sc), vehicle: steriod suspending solution) 90 % of control; (dose: 400.0 mg/kg/injection, schedule: Q01DX010 (sc), vehicle: steriod suspending solution) 86 % of control.

Consider `Cc1c(NS(=O)(=O)c2ccccc2)c(C)c(NS(=O)(=O)c2ccccc2)c(C)c1NS(=O)(=O)c1ccccc1`, for which the T/C reads like this: under setting [12], 88 % of control; under setting [13], 91 % of control; under setting [14], 88 % of control.

For the compound `O=C(O)C(S)C(S)C(=O)O.[As]` (stereo not given), the T/C is 94 % of control under setting [9]; 118 % of control (dose: 25.0 mg/kg/injection, schedule: Q04DX003 (ip), vehicle: saline sonified); 88 % of control under setting [10]; 118 % of control (dose: 50.0 mg/kg/injection, schedule: Q04DX003 (ip), vehicle: saline sonified); 88 % of control under setting [2]; 122 % of control (dose: 100.0 mg/kg/injection, schedule: Q04DX003 (ip), vehicle: saline sonified).

Regarding `COc1ccc(C(=O)/C=C/c2ccc(OCc3ccccc3)cc2)c(OC)c1`, the T/C was 103 % of control under setting [12], 94 % of control under setting [13] and 90 % of control under setting [14].

Consider `O=C(/C=C/c1cccc([N+](=O)[O-])c1)NCCBr`, for which the T/C was 90 % of control under setting [3], 100 % of control under setting [5] and 100 % of control under setting [7].

As for `ClC(Cl)(Cl)c1nc2nccnc2[nH]1`, the T/C runs as follows: (dose: 44.0 mg/kg/injection, schedule: Q04DX003 (ip), vehicle: Klucel (hydroxypropylcellulose) (HPC)) 104 % of control; under setting [15], 109 % of control; (dose: 66.0 mg/kg/injection, schedule: Q04DX003 (ip), vehicle: Klucel (hydroxypropylcellulose) (HPC)) 108 % of control; (dose: 66.0 mg/kg/injection, schedule: Q04DX003 (ip), vehicle: saline with Tween-80) 109 % of control; under setting [8], 104 % of control; (dose: 150.0 mg/kg/injection, schedule: Q04DX003 (ip), vehicle: Klucel (hydroxypropylcellulose) (HPC)) 100 % of control.

Turning to `OCC(I)C(CO)[n+]1ccccc1` (stereo not given), the T/C under setting [16] is 107 % of control; the T/C (dose: 12.5 mg/kg/injection, schedule: Q04DX003 (ip), vehicle: saline) is 88 % of control; the T/C under setting [9] is 107 % of control; the T/C under setting [17] was 103 % of control; the T/C under setting [11] was 100 % of control.

`CN(C)c1ccc(/C=C/c2ccc3ccccc3n2)cc1`: the T/C was 86 % of control (dose: 25.0 mg/kg/injection, schedule: Q04DX003 (ip), vehicle: saline with Tween-80); 86 % of control under setting [15]; 86 % of control under setting [8].

With `CC(C)C(=O)OCC1OC(n2cnc3c(=S)nc(N)[nH]c32)C(OC(=O)C(C)C)C1OC(=O)C(C)C` (stereo not given), the T/C (dose: 25.0 mg/kg/injection, schedule: Q01DX009 (ip), vehicle: Klucel (hydroxypropylcellulose) (HPC)) was 92 % of control.

On to `COc1ccc(C(C#N)CC(=O)c2ccc(OC)c(OCc3ccccc3)c2)cc1OC` (stereo not given), for which the T/C runs as follows: (dose: 6.25 mg/kg/injection, schedule: Q01DX009 (ip), vehicle: saline) 90 % of control; under setting [16], 95 % of control; under setting [9], 91 % of control; under setting [17], 114 % of control; under setting [10], 99 % of control; under setting [11], 96 % of control. Moreover, the T/C under setting [2] was 90 % of control; the T/C under setting [3] is 96 % of control; the T/C under setting [4] was 86 % of control; the T/C under setting [5] was 107 % of control; the T/C under setting [6] was 95 % of control; the T/C under setting [7] is 100 % of control.

The record behind these values is PubChem BioAssay AID328 (DTP/NCI, 2004).
